Data as given in ChEMBL document CHEMBL5325411, “Design, synthesis and biological evaluation of novel phenylfuran-bisamide derivatives as P-glycoprotein inhibitors against multidrug resistance in MCF-7/ADR cell” (Eur J Med Chem, 2023).
Active and inactive are the calls of the source. The calls are words filed in the database; no cut-off is given here.

Columns and labels:
NCI/ADR-RES [1] = assay: Cytotoxicity against DOX-resistant human MCF7/ADR cells assessed as reversal fold of resistance by measuring ratio of doxorubicin IC50 alone to doxorubicin IC50 in presence of test compound incubated for 48 hrs by CCK8 assay; format: functional
NCI/ADR-RES [2] = assay: Downregulation of P-gp expression in DOX-resistant human MCF7/ADR cells at 0.5 to 5 uM incubated for 48 hrs by Western blot analysis; format: functional, cell-based; settings: dose 0.5-5 µM
NCI/ADR-RES [3] = assay: Cytotoxicity against DOX-resistant human MCF7/ADR cells assessed as cell growth inhibition at 5 uM incubated for 48 hrs by CCK8 assay relative to control; format: functional
MCF7 = assay: Cytotoxicity against human MCF7 cells assessed as cell growth inhibition at 5 uM incubated for 48 hrs by CCK8 assay relative to control; format: functional
[4] = biological target: ATP-dependent translocase ABCB1 (Homo sapiens, UniProt P08183); assay: Inhibition of P-gp in DOX-resistant human MCF7/ADR cells assessed as increase in intracellular Rh123 accumulation incubated for 4 hrs by flow cytometry; format: cell-based; settings: mcf7adr, at 2.5 to 5 µM, dose 2.5-5 µM
ATP-dependent translocase ABCB1, sequence (P08183 whole entry): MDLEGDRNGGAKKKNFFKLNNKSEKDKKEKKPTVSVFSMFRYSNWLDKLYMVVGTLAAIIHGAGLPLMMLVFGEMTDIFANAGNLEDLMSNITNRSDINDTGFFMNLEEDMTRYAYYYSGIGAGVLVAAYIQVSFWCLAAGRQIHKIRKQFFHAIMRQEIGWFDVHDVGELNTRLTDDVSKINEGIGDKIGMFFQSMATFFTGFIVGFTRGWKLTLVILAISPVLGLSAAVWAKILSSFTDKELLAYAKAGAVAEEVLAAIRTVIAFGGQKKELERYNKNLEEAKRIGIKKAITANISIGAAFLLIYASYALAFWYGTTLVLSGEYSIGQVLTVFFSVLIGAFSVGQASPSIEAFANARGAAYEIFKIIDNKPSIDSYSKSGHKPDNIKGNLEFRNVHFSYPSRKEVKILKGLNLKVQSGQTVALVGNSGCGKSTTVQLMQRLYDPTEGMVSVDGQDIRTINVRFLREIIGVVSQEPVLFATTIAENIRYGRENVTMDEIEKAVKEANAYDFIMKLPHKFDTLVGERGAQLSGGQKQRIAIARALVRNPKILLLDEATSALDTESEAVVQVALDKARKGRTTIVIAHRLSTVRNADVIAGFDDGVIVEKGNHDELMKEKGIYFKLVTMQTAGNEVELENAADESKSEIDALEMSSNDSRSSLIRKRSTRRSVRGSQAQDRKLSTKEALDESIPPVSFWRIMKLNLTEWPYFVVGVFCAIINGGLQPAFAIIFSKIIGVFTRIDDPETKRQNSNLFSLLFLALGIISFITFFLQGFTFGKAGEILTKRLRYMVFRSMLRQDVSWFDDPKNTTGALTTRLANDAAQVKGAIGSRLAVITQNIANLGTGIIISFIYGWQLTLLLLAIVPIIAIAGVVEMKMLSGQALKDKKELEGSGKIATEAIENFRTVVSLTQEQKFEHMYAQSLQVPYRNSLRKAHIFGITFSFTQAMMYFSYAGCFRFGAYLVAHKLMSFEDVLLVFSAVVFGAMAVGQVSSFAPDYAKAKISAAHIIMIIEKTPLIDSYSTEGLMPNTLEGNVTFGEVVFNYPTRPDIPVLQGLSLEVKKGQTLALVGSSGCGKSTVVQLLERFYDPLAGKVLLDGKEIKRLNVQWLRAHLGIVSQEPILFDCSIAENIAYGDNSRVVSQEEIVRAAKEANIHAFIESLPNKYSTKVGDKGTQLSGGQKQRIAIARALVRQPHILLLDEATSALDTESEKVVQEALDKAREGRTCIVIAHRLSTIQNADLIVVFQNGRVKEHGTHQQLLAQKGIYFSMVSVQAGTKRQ

For `COc1cc2c(cc1OC)CN(C(=O)c1ccc(-c3ccc(NC(=O)c4cc5cc(F)ccc5[nH]4)cc3)o1)CC2`, the “Ratio IC50” value (NCI/ADR-RES [1]) was 1163, the Activity (NCI/ADR-RES [2]) was “inactive” and the inhibition at 5 µM (NCI/ADR-RES [3]) was 19.8%. The inhibition at 5 µM (MCF7) was 12% and the “inhibition (INH)” value [4] was “Dose-Dependent Effect”.
For `CCCCC(=O)Nc1ccc(-c2ccc(C(=O)N3CCc4cc(OC)c(OC)cc4C3)o2)cc1`, the “Ratio IC50” value (NCI/ADR-RES [1]) was 15.7, the inhibition at 5 µM (NCI/ADR-RES [3]) was 13.1% and the inhibition at 5 µM (MCF7) was 17.6%.
With `COc1cc2c(cc1OC)CN(C(=O)c1ccc(-c3ccc(NC(C)=O)cc3)o1)CC2` the “Ratio IC50” value (NCI/ADR-RES [1]) was 18.6, the inhibition at 5 µM (NCI/ADR-RES [3]) was 10.1% and the inhibition at 5 µM (MCF7) was 11%.
In the case of `COc1cc2c(cc1OC)CN(C(=O)c1ccc(-c3ccc(NC(=O)/C=C/c4ccccc4)cc3)o1)CC2`, the “Ratio IC50” value (NCI/ADR-RES [1]) was 277.7, the inhibition at 5 µM (NCI/ADR-RES [3]) was 14.6% and the inhibition at 5 µM (MCF7) was 14.5%.
`C/C=C/C(=O)Nc1ccc(-c2ccc(C(=O)N3CCc4cc(OC)c(OC)cc4C3)o2)cc1` was tested, and the “Ratio IC50” value (NCI/ADR-RES [1]) was 130.1, the inhibition at 5 µM (NCI/ADR-RES [3]) was 8.8% and the inhibition at 5 µM (MCF7) was 1.7%.
In the case of `COc1cc2c(cc1OC)CN(C(=O)c1ccc(-c3ccc(NC(=O)c4cc5c(F)cc(F)cc5[nH]4)cc3)o1)CC2`, the “Ratio IC50” value (NCI/ADR-RES [1]) was 600.2, the inhibition at 5 µM (NCI/ADR-RES [3]) was 14.7% and the inhibition at 5 µM (MCF7) was 9.1%.
For `COc1cc2c(cc1OC)CN(C(=O)c1ccc(-c3ccc(NC(=O)C(C)C)cc3)o1)CC2`, the “Ratio IC50” value (NCI/ADR-RES [1]) was 46.5, the inhibition at 5 µM (NCI/ADR-RES [3]) was 18.4% and the inhibition at 5 µM (MCF7) was 19.1%.
Work on `C/C=C/C[C@@H](C)[C@@H](O)[C@H]1C(=O)N[C@@H](CC)C(=O)N(C)CC(=O)N(C)[C@@H](CC(C)C)C(=O)N[C@@H](C(C)C)C(=O)N(C)[C@@H](CC(C)C)C(=O)N[C@@H](C)C(=O)N[C@H](C)C(=O)N(C)[C@@H](CC(C)C)C(=O)N(C)[C@@H](CC(C)C)C(=O)N(C)[C@@H](C(C)C)C(=O)N1C` [CYCLOSPORINE] yielded an inhibition at 5 µM (NCI/ADR-RES [3]) of 24.5%.
`COc1ccc(CCN(C)CCCC(C#N)(c2ccc(OC)c(OC)c2)C(C)C)cc1OC` (stereo not drawn) was tested, and the inhibition at 5 µM (NCI/ADR-RES [3]) was 12.2%.
In the case of `COc1cc2c(cc1OC)CN(C(=O)c1ccc(-c3ccc(NC(=O)c4cccc5[nH]ccc45)cc3)o1)CC2`, the “Ratio IC50” value (NCI/ADR-RES [1]) was 220, the inhibition at 5 µM (NCI/ADR-RES [3]) was 9.2% and the inhibition at 5 µM (MCF7) was 7.6%.
With `COc1cc2c(cc1OC)CN(C(=O)c1ccc(-c3ccc(NC(=O)C(C)(C)C)cc3)o1)CC2` the “Ratio IC50” value (NCI/ADR-RES [1]) was 78.4, the inhibition at 5 µM (NCI/ADR-RES [3]) was 23.3% and the inhibition at 5 µM (MCF7) was 12.9%.
`COc1cc2c(cc1OC)CN(C(=O)c1ccc(-c3ccc(NC(=O)CC(C)(C)C)cc3)o1)CC2` was tested, and the “Ratio IC50” value (NCI/ADR-RES [1]) was 52, the inhibition at 5 µM (NCI/ADR-RES [3]) was 12.6% and the inhibition at 5 µM (MCF7) was 18.5%.
In the case of `COc1cc2c(cc1OC)CN(C(=O)c1ccc(-c3ccc(NC(=O)c4ccc5ccccc5c4)cc3)o1)CC2`, the “Ratio IC50” value (NCI/ADR-RES [1]) was 451.1, the inhibition at 5 µM (NCI/ADR-RES [3]) was 23.8% and the inhibition at 5 µM (MCF7) was 29.5%.
In the case of `COc1cc2c(cc1OC)CN(C(=O)c1ccc(-c3ccc(NC(=O)c4cc5cc(Br)ccc5[nH]4)cc3)o1)CC2`, the “Ratio IC50” value (NCI/ADR-RES [1]) was 5473, the inhibition at 5 µM (NCI/ADR-RES [3]) was 19.5% and the inhibition at 5 µM (MCF7) was 26.8%.
In the case of `COc1cc2c(cc1OC)CN(C(=O)c1ccc(-c3ccc(NC(=O)c4cc5cc(C)ccc5[nH]4)cc3)o1)CC2`, the “Ratio IC50” value (NCI/ADR-RES [1]) was 116.9, the inhibition at 5 µM (NCI/ADR-RES [3]) was 10.1% and the inhibition at 5 µM (MCF7) was 8.1%.
With `COc1cc2c(cc1OC)CN(C(=O)c1ccc(-c3ccc(NC(=O)C4CCC4)cc3)o1)CC2` the “Ratio IC50” value (NCI/ADR-RES [1]) was 82.1 and the inhibition at 5 µM (MCF7) was 15.3%.
`COc1cc2c(cc1OC)CN(C(=O)c1ccc(-c3ccc(NC(=O)Cc4cccc5ccccc45)cc3)o1)CC2` was tested, and the “Ratio IC50” value (NCI/ADR-RES [1]) was 168.8 and the inhibition at 5 µM (NCI/ADR-RES [3]) was 26.3%.
With `COc1ccc(-c2ccc(C(=O)N3CCc4cc(OC)c(OC)cc4C3)o2)cc1` the “Ratio IC50” value (NCI/ADR-RES [1]) was 39.4, the inhibition at 5 µM (NCI/ADR-RES [3]) was 25.7% and the inhibition at 5 µM (MCF7) was 11.2%.
With `COc1cc2c(cc1OC)CN(C(=O)c1ccc(-c3ccc(NC(=O)c4cc5ccccc5o4)cc3)o1)CC2` the inhibition at 5 µM (NCI/ADR-RES [3]) was 63.7% and the inhibition at 5 µM (MCF7) was 44.5%.
With `COc1cc2c(cc1OC)CN(C(=O)c1ccc(-c3ccc(NC(=O)c4cccc5ccccc45)cc3)o1)CC2` the “Ratio IC50” value (NCI/ADR-RES [1]) was 201.7, the inhibition at 5 µM (NCI/ADR-RES [3]) was 28.4% and the inhibition at 5 µM (MCF7) was 34.8%.
With `COc1cc2c(cc1OC)CN(C(=O)c1ccc(-c3ccc(NC(=O)c4csc5ccccc45)cc3)o1)CC2` the inhibition at 5 µM (NCI/ADR-RES [3]) was 41.9% and the inhibition at 5 µM (MCF7) was 37.3%.
In the case of `COc1cc2c(cc1OC)CN(C(=O)c1ccc(-c3ccc(NC(=O)c4cc5ccc(F)cc5[nH]4)cc3)o1)CC2`, the “Ratio IC50” value (NCI/ADR-RES [1]) was 566.4, the inhibition at 5 µM (NCI/ADR-RES [3]) was 16.9% and the inhibition at 5 µM (MCF7) was 28.1%.
In the case of `COc1cccc2c1C(=O)c1c(O)c3c(c(O)c1C2=O)C[C@@](O)(C(=O)CO)C[C@@H]3O[C@H]1C[C@H](N)[C@H](O)[C@H](C)O1` [DOXORUBICIN], the “Ratio IC50” value (NCI/ADR-RES [1]) was 1.
For `COc1cc2c(cc1OC)CN(C(=O)c1ccc(-c3ccc(NC(=O)C4CC4)cc3)o1)CC2`, the “Ratio IC50” value (NCI/ADR-RES [1]) was 57.2, the inhibition at 5 µM (NCI/ADR-RES [3]) was 10.9% and the inhibition at 5 µM (MCF7) was 12.2%.
For `COc1cc2c(cc1OC)CN(C(=O)c1ccc(-c3ccc(NC(=O)c4cc5ccccc5[nH]4)cc3)o1)CC2`, the “Ratio IC50” value (NCI/ADR-RES [1]) was 540.5, the inhibition at 5 µM (NCI/ADR-RES [3]) was 15.1% and the inhibition at 5 µM (MCF7) was 13.3%.
In the case of `COc1cc2c(cc1OC)CN(C(=O)c1ccc(-c3ccc(NC(=O)c4cc5cc(Cl)ccc5[nH]4)cc3)o1)CC2`, the “Ratio IC50” value (NCI/ADR-RES [1]) was 613.3, the inhibition at 5 µM (NCI/ADR-RES [3]) was 14.4% and the inhibition at 5 µM (MCF7) was 15.8%.
In the case of `COc1cc2c(cc1OC)CN(C(=O)c1ccc(-c3ccc(NC(=O)c4cc5ccccc5s4)cc3)o1)CC2`, the inhibition at 5 µM (NCI/ADR-RES [3]) was 46.8% and the inhibition at 5 µM (MCF7) was 48.8%.
For `COc1ccc2[nH]c(C(=O)Nc3ccc(-c4ccc(C(=O)N5CCc6cc(OC)c(OC)cc6C5)o4)cc3)cc2c1`, the “Ratio IC50” value (NCI/ADR-RES [1]) was 214.4, the inhibition at 5 µM (NCI/ADR-RES [3]) was 16.1% and the inhibition at 5 µM (MCF7) was 19.5%.
For `COc1ccc2cc(C(=O)Nc3ccc(-c4ccc(C(=O)N5CCc6cc(OC)c(OC)cc6C5)o4)cc3)[nH]c2c1`, the “Ratio IC50” value (NCI/ADR-RES [1]) was 437.1, the inhibition at 5 µM (NCI/ADR-RES [3]) was 12.4% and the inhibition at 5 µM (MCF7) was 7.3%.
`COc1cc2c(cc1OC)CN(CCc1ccc(NC(=O)c3cc(OC)c(OC)cc3NC(=O)c3cnc4ccccc4c3)cc1)CC2` was tested, and the “Ratio IC50” value (NCI/ADR-RES [1]) was 319.3 and the inhibition at 5 µM (MCF7) was 21.3%.
For `CCC(=O)Nc1ccc(-c2ccc(C(=O)N3CCc4cc(OC)c(OC)cc4C3)o2)cc1`, the “Ratio IC50” value (NCI/ADR-RES [1]) was 33.3, the inhibition at 5 µM (NCI/ADR-RES [3]) was 23.2% and the inhibition at 5 µM (MCF7) was 17.2%.
`COc1cc2c(cc1OC)CN(C(=O)c1ccc(-c3ccc(NC(=O)c4c[nH]c5ccccc45)cc3)o1)CC2` was tested, and the “Ratio IC50” value (NCI/ADR-RES [1]) was 347, the inhibition at 5 µM (NCI/ADR-RES [3]) was 18.2% and the inhibition at 5 µM (MCF7) was 16.1%.
`COc1cc2c(cc1OC)CN(C(=O)c1ccc(-c3ccc(NC(=O)c4cc5cc([N+](=O)[O-])ccc5[nH]4)cc3)o1)CC2` was tested, and the “Ratio IC50” value (NCI/ADR-RES [1]) was 189.9, the inhibition at 5 µM (NCI/ADR-RES [3]) was 5.7% and the inhibition at 5 µM (MCF7) was 5.1%.
With `COc1cc2c(cc1OC)CN(C(=O)c1ccc(-c3ccc(NC(=O)c4cc5ccc(Br)cc5[nH]4)cc3)o1)CC2` the “Ratio IC50” value (NCI/ADR-RES [1]) was 497.5, the inhibition at 5 µM (NCI/ADR-RES [3]) was 14.7% and the inhibition at 5 µM (MCF7) was 7.4%.
In the case of `COc1cc2c(cc1OC)CN(C(=O)c1ccc(-c3ccc(NC(=O)c4cc5c(C)cccc5[nH]4)cc3)o1)CC2`, the “Ratio IC50” value (NCI/ADR-RES [1]) was 88.3, the inhibition at 5 µM (NCI/ADR-RES [3]) was 15.1% and the inhibition at 5 µM (MCF7) was 16.6%.
In the case of `COc1cc2c(cc1OC)CN(C(=O)c1ccc(-c3ccc(NC(=O)C4CCCC4)cc3)o1)CC2`, the “Ratio IC50” value (NCI/ADR-RES [1]) was 18.6, the inhibition at 5 µM (NCI/ADR-RES [3]) was 19.8% and the inhibition at 5 µM (MCF7) was 15.7%.
